Measured values from article PMC9269301, “Phytochemical Analysis, Antioxidant, Antimicrobial, and Cytotoxic Activity of Different Extracts of Xanthoparmelia stenophylla Lichen from Stara Planina, Serbia” (Plants, 2022).
Converted amounts (≈) assume the structure as drawn. Where two headings read alike, the source gives them in different places.

Columns and labels:
[1] = system: C. albicans (isolate); test: Microdilution with resazurin, antifungal; type: cell-based, Candida albicans; conditions: Candida albicans, antimycotics
Description: (§1) The tested methanol, acetone, and n-hexane extracts, as well as the component (usnic acid) of X. stenophylla, were dissolved in 10% dimethyl sulfoxide (DMSO) and then diluted into the nutrient liquid medium. DMSO was obtained from Acros Organics (Fair Lawn, NJ, USA). Resazurin was obtained from Alfa Aesar GmbH & Co. (KG, Karlsruhe, Germany).
(§2) The antimicrobial activity of the extracts and components was tested against 19 microorganisms. The experiment involved 15 strains of bacteria (i.e., 6 standard strains: Staphylococcus aureus ATCC 6538, Bacillus subtilis ATCC 6633, Proteus mirabilis ATCC 12453, Pseudomonas aeruginosa ATCC 27853, Klebsiella pneumoniae ATCC 70063, and Escherichia coli ATCC 25922; 9 isolates: Staphylococcus aureus, Escherichia coli, Salmonella enterica, Salmonella Typhimurium, Proteus mirabilis, Klebsiella pneumoniae, Pseudomonas aeruginosa, Bacillus subtilis, and Bacillus cereus). In addition, four fungal strains (i.e., two standard strains: Candida albicans ATCC 10231 and Aspergillus niger ATCC 16888; two isolates: Saccharomyces cerevisiae and Candida albicans) were tested. All isolates were a generous gift from the Institute of Public Health, Kragujevac. The other microorganisms were provided from the collection held by the Microbiology Laboratory Faculty of Science, University of Kragujevac.
(§3) The bacterial suspensions were prepared by the direct colony method. The turbidity of the initial suspension was adjusted using a densitometer (DEN-1, BioSan, Riga, Latvia). When adjusted to the turbidity of the 0.5 McFarland’s standard (Andrews, 2005) the bacteria suspension contained approximately 10^8 colony-forming units (CFU)/mL, and the suspension of yeast contained 10^6 CFU/mL; 1:100 dilutions of the initial suspension were additionally prepared in sterile 0.85% saline. The suspensions of fungal spores were prepared by gentle stripping of spores from slopes with growing mycelia. The resulting suspensions were 1:1000 diluted in sterile 0.85% saline.
(§4) Antimicrobial activity was tested by determining the minimum inhibitory concentrations (MICs) and minimum microbicidal concentrations (MBCs) using the microdilution plate method with resazurin [56]. The 96-well plates were prepared by dispensing 100 μL of Mueller–Hinton broth for bacteria and Sabouard broth for fungi into each well. A 10 μL aliquot from the stock solution of the tested extract or component was added to the first row of the plate. Then, two-fold serial dilutions were performed using a multichannel pipette. The obtained concentration range was from 10 to 0.08 mg/mL. The method is described in detail in [76].
(§5) Each test included growth control and sterility control.
(§6) Minimum microbicidal concentrations were determined by plating 10 μL of samples from wells where no indicator color change or no mycelia growth was recorded on a nutrient agar medium. At the end of the incubation period, the lowest concentration with no growth (no colony) was defined as the minimum microbicidal concentration.

[2] = system: C. albicans ATCC 10231; test: Microdilution with resazurin, antifungal; type: cell-based, Candida albicans; conditions: Candida albicans, ATCC10231, antimycotics
Description: as §1, §2, §3, §4, §5, §6

[3] = system: A. niger ATCC 16888; test: Microdilution with resazurin, antifungal; type: cell-based, Aspergillus niger; conditions: Aspergillus niger, ATCC16888, antimycotics
Description: as §1, §2, §3, §4, §5, §6

[4] = system: P. aeruginosa biofilm; test: Antibiofilm activity (biofilm formation, crystal violet); type: cell-based, Pseudomonas aeruginosa; conditions: 48 h; for IC50: Pseudomonas aeruginosa, read-out: BIC50 (biofilm inhibitory concentration, 50% reduction of biofilm coverage)
Description: (§7) The ability of S. aureus ATCC 6538 and P. aeruginosa to form biofilms was assayed as described by O’Toole et al. with some modifications. Briefly, the tissue culture of 96-well microtiter plates (Sarstedt, Germany) were prepared by dispensing 100 µL of nutrient broth (i.e., Mueller–Hinton broth) into each well. Ten microliters of spore suspension (10^8 colony-forming units (CFU)/mL) was added into each row. […] Biofilms formed by adherent cells in 96-well microtiter plates were stained with crystal violet (0.1% w/v; Fluka AG, Buchs, Switzerland) and incubated at room temperature for 20 min. Excess stain was rinsed off by thorough washing with deionized water and then with […] of 96% ethanol. Optical densities (ODs) of stained adherent bacteria were determined with an enzyme-linked immunosorbent assay (ELISA) plate reader (RT-2100C, Rayto, Shenzhen, China) at a 630 nm wavelength. Only broth served as a control to check sterility and nonspecific binding of media. To compensate for background absorbance, OD readings from sterile medium, fixative, and dye were averaged and subtracted from all test values. All tests were performed in duplicate. The tissue culture of 96-well microtiter plates (Sarstedt, Nümbrecht, Germany) were prepared by dispensing 100 µL of nutrient broth (i.e., Mueller–Hinton broth) into each well. From the stock solution of the tested extracts or components (concentration: 20 mg/mL), 100 µL was added to the first row of the microtiter plate. Two-fold serial dilutions were then made using a multichannel pipette, following which 10 µL of fresh bacterial suspension was added to each well. The inoculated microtiter plates were incubated at 37 °C for 48 h. After incubation, the content of each well was gently removed by tapping the microtiter plates. […] Biofilms formed by adherent cells in 96-well microtiter plates were stained with crystal violet (0.1% w/v; Fluka AG, Switzerland) and incubated at room temperature for 20 min. Excess stain was rinsed off by thorough washing with deionized water and then with […] densities (ODs) of stained adherent bacteria were determined with an enzyme-linked immunosorbent assay (ELISA) plate reader at a 630 nm wavelength. […] Only broth or broth with extracts served as a control to check the sterility and nonspecific binding of media. To compensate for background absorbance, OD readings from sterile medium, extracts, fixative, and dye were averaged and subtracted from all test values. All tests were performed in duplicate.

[5] = system: S. aureus ATCC 6538 biofilm; test: as above; type: cell-based, Staphylococcus aureus; conditions: for IC50: Staphylococcus aureus, read-out: BIC50 (biofilm inhibitory concentration, 50% reduction of biofilm coverage)
Description: as §7

[6] = system: MRC-5 cells (nontransformed human lung fibroblast); test: MTT assay; type: cell-based; conditions: for GI50 / IC50: Homo sapiens; for GI50: MRC5, read-out: GI50 (50% growth inhibition); for IC50: MRC5, read-out: IC50
[7] = system: HCT 116 cells (colon cancer); test: MTT assay; type: cell-based, human; conditions: for GI50 / IC50: Homo sapiens; for GI50: read-out: GI50 (50% growth inhibition); for IC50: read-out: IC50
[8] = system: HeLa cells (cervical adenocarcinoma); test: MTT assay; type: cell-based, human; conditions: for TGI (total growth inhibition) / GI50 / IC50: HeLa; for GI50 / IC50: Homo sapiens; for GI50: read-out: GI50 (50% growth inhibition); for IC50: read-out: IC50; for SI (selectivity index): IC50 MRC-5 / IC50 HeLa
[9] = S. aureus ATCC 6538, 37 °C, 48 h

C[C@@H]1[C@H](O)[C@@H](C)/C=C/C=C/C=C/C=C/C=C/C=C/C=C/[C@H](O[C@@H]2O[C@H](C)[C@@H](O)[C@H](N)[C@@H]2O)C[C@@H]2O[C@](O)(C[C@@H](O)C[C@@H](O)[C@H](O)CC[C@@H](O)C[C@@H](O)CC(=O)O[C@H]1C)C[C@H](O)[C@H]2C(=O)O [AB, amphotericin B]
MFC ([1]; read-out: MFC): 1.95 µg/mL (≈ 2.11 µM) | MIC ([1]; read-out: MIC): 0.98 µg/mL (≈ 1.06 µM) | MFC ([2]; read-out: MFC): 1.95 µg/mL (≈ 2.11 µM) | MIC ([2]; read-out: MIC): 0.49 µg/mL (≈ 0.53 µM) | MFC ([3]; read-out: MFC): 0.98 µg/mL (≈ 1.06 µM) | MIC ([3]; read-out: MIC): 0.98 µg/mL (≈ 1.06 µM)

CO/N=C(\C(=O)N[C@@H]1C(=O)N2C(C(=O)O)=C(CSc3nc(=O)c(=O)[nH]n3C)CS[C@H]12)c1csc(N)n1 [CT, ceftriaxone]
BIC90 (biofilm inhibitory concentration, 90% reduction of biofilm coverage) ([4]; P. aeruginosa, 37 °C): >1000 µg/mL | IC50 ([4]; P. aeruginosa, 37 °C): 116 µg/mL (≈ 210 µM) | BIC90 (biofilm inhibitory concentration, 90% reduction of biofilm coverage) [5, 9]: >1000 µg/mL | IC50 ([5]; ATCC6538, S. aureus ATCC 6538, 37 °C, 48 h): 475 µg/mL (≈ 857 µM)

COc1cccc2c1C(=O)c1c(O)c3c(c(O)c1C2=O)C[C@@](O)(C(=O)CO)C[C@@H]3O[C@H]1C[C@H](N)[C@H](O)[C@H](C)O1 [DOX, doxorubicin]
GI50 ([6]; MRC-5, 24 h): < 0.1 µg/mL | GI50 ([6]; MRC-5, 48 h): < 0.1 µg/mL | GI50 ([6]; MRC-5, 72 h): < 0.1 µg/mL | IC50 ([6]; MRC-5, 24 h): 86.9 ± 17.2 µg/mL (≈ 160 µM) | IC50 ([6]; MRC-5, 48 h): 0.96 ± 0.1 µg/mL (≈ 1.77 µM) | IC50 ([6]; MRC-5, 72 h): 0.1 ± 0.05 µg/mL (≈ 0.184 µM) | TGI (total growth inhibition) ([6]; MRC-5, 24 h): 54.71 ± 4.65 µg/mL (≈ 101 µM) | TGI (total growth inhibition) ([6]; MRC-5, 48 h): 6.34 ± 2.90 µg/mL (≈ 11.7 µM) | TGI (total growth inhibition) ([6]; MRC-5, 72 h): 2.35 ± 0.35 µg/mL (≈ 4.32 µM) | TGI (total growth inhibition) ([7]; HCT 116, 24 h): <0.1 µg/mL | TGI (total growth inhibition) ([7]; HCT 116, 48 h): <0.1 µg/mL | TGI (total growth inhibition) ([7]; HCT 116, 72 h): <0.1 µg/mL | GI50 ([7]; HCT 116, 24 h): < 0.1 µg/mL | GI50 ([7]; HCT 116, 48 h): < 0.1 µg/mL | GI50 ([7]; HCT 116, 72 h): < 0.1 µg/mL | IC50 ([7]; HCT 116, 24 h): 153 ± 9.69 µg/mL (≈ 281 µM) | IC50 ([7]; HCT 116, 72 h): 0.41 ± 0.16 µg/mL (≈ 0.754 µM) | SI (selectivity index) ([7]; IC50 MRC-5 / IC50 HCT 116, 24 h): 0.57 | SI (selectivity index) ([7]; IC50 MRC-5 / IC50 HCT 116, 72 h): 0.24 | TGI (total growth inhibition) ([8]; 24 h): <0.1 µg/mL | TGI (total growth inhibition) ([8]; 48 h): <0.1 µg/mL | TGI (total growth inhibition) ([8]; 72 h): <0.1 µg/mL | GI50 ([8]; 24 h): < 0.1 µg/mL | IC50 ([8]; 24 h): 22.9 ± 3.05 µg/mL (≈ 42.2 µM) | GI50 ([8]; 48 h): < 0.1 µg/mL | IC50 ([8]; 48 h): 1.04 ± 0.06 µg/mL (≈ 1.91 µM) | GI50 ([8]; 72 h): < 0.1 µg/mL | IC50 ([8]; 72 h): 0.14 ± 0.01 µg/mL (≈ 0.258 µM) | SI (selectivity index) ([8]; 24 h): 3.8 | SI (selectivity index) ([8]; 48 h): 0.92 | SI (selectivity index) ([8]; 72 h): 0.71

CN[C@H](CC(C)C)C(=O)N[C@H]1C(=O)N[C@@H](CC(N)=O)C(=O)N[C@H]2C(=O)N[C@H]3C(=O)N[C@H](C(=O)N[C@H](C(=O)O)c4cc(O)cc(O)c4-c4cc3ccc4O)[C@H](O)c3ccc(c(Cl)c3)Oc3cc2cc(c3O[C@@H]2O[C@H](CO)[C@@H](O)[C@H](O)[C@H]2O[C@H]2C[C@](C)(N)[C@H](O)[C@H](C)O2)Oc2ccc(cc2Cl)[C@H]1O [VM, vancomycin]
BIC90 (biofilm inhibitory concentration, 90% reduction of biofilm coverage) ([4]; P. aeruginosa, 37 °C): >1000 µg/mL | IC50 [4]: 734 µg/mL (≈ 506 µM) | BIC90 (biofilm inhibitory concentration, 90% reduction of biofilm coverage) [5, 9]: >1000 µg/mL | IC50 ([5]; ATCC6538, 48 h): 62.6 µg/mL (≈ 43.2 µM)
